In experiment [1] the test system is IL-12. The experiment in a line: Gene expression of IL-12 in human synoviocytes (PCR Real Time). Type of experiment: cell-based. The note with it: 3 days of treatment, FIG. 2: 0.5 mg/ml, vs control treated with non-sulfated HA 200 KD. As for the experimental part:
Human synoviocytes previously expanded in vitro and maintained in a culture at 37° C. with a medium of DMEM containing 10% of FCS, were seeded at a concentration of 20,000 cells per well (synoviocytes are cells capable of producing various types of cytokines, and are therefore normally used for this type of experimental test). […] After 3 days of treatment, the PCR Real Time was effected to evaluate the gene expression of IL-10 and IL-12: the cell RNA was extracted using the “Trizol” method, following the indications of the supplier (TRIZOL reagent, LIFE Technologies, GIBCO BRL). In short, the cells were lysed by the addition of 1.0 ml of Trizol and the total RNA was quantified by measuring its absorbance at 260 nm. The appropriate primers were selected for each gene to be amplified, using the software Primer3 (Roche Molecular Diagnostics, Pleasanton, Calif., USA). The gene expression was evaluated by means of PCR Real Time effected with a Rotor-gene TM5500 (Corbett research, Sydney, Australia). The PCR reactions were effected using primers at […] and SYBR Green (Invitroge, Carlsbad, Calif., USA) at 40 cycles of 15 s at 95° C., and 1 min. at 60° C. The value of “Fluorescence thresholds (Ct)” was automatically determined by the software, evaluating an amplification coefficient for the genes studied between 92 and 110%. […]

The subject of experiment [2] is IL-12. The experiment in a line: Protein synthesis of IL-12 in human PBMC (SearchLight array). The following applies: not stimulated or stimulated with LPS or PHA (10 μg/ml), 24 hours, FIG. 8: 1 mg/ml, vs HA.
Description: For these experimentations, mononucleate cells of human peripheral blood (PBMC) were adopted, deriving from various donors for evaluating the effect of HAS on the production of the cytokines listed above, using:
The separation of the PBMC (Bøyum A., Scand J Clin Lab Invest 21 Suppl, 1968, 97:77-89) was effected using the product Ficoll-Paque PLUS (GE Healthcare) and following the protocol indicated by the supplier. At day zero 100,000 cells were plated per well (using plates with 96 wells) in 200 μl of medium RPMI 1640, to which 10% of fetal bovine serum, HEPES 10 mM, Glutamine 2 mM, 1% Penicillin-Streptomycin 100 U/ml, had been added. […] The cells were treated separately with the three compounds at a concentration of 0.1 mg/ml or 1 mg/ml. After 24 hours of incubation at 37° C. (5% CO2), 100 μl of supernatant were taken from each well in order to analyze the production of IL-2, IL-7, IL-10 and IL-12.
The quantification of the inflammation mediators was effected by means of the SearchLight® technology, using a Custom Human 9-flex Array plate following the protocol indicated by the supplier in the technical card.

Turning to “sulfated hyaluronic acid degree 3 [HAS3]”, in experiment [1], the “gene expression of IL-12 (synthesis of its mRNA)” value is “halving the synthesis of its mRNA”. For the same substance, in experiment [2], the “synthesis of IL-12” value was “significantly reducing”.

Values taken from patent US11198741B2, “Medicines for topic use based on sulfated hyaluronic acid as activating or inhibiting agent of the cytokine activity” (Fidia Farmaceutici S.p.A., priority 2009, dated 2021).
